Experimental data reported in patent publication US9409952B2, “Peptide-compound cyclization method” (Chugai Seiyaku Kabushiki Kaisha, priority 2011, dated 2016).
Starred links: 1 amine or outer side, 2 acyl side, 3 side chain; linkers in the order of their positions; H or OH if unused. Positions of bridges follow the written chain, without caps; N, C: chain ends. Non-standard residues stand in square brackets, D forms with d. Residues, ends and D or L forms follow the SMILES beside them. *: point of attachment. NMeF = CN[C@@H](Cc1ccccc1)C(=O)O; NMeGABA = CN(CCCC(=O)[*:2])[*:1]; NMeβAla = CN(CCC(=O)[*:2])[*:1]; NMeL = CN[C@@H](CC(C)C)C(=O)O; NMeV = CN[C@H](C(=O)O)C(C)C; NMeA = CN[C@@H](C)C(=O)O; Piperidide = C1CCN(*)CC1; dNMeA = CN[C@H](C)C(=O)O; Sar = CNCC(=O)O

Columns and labels:
[1] = PAMPA (parallel artificial membrane permeability assay); format: in vitro ADME; conditions: PAMPA; membrane permeation rate (Pe); 50 mM MOPSO buffer pH 6.5 with 5.0% glycocholic acid, 37° C., 18 hours; read-out: iPAMPA Pe
In short: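 Artificial membrane was 10% (w/v) egg lecithin plus 0.5% (w/v) cholesterol in dodecane on a PVDF filter. A 10 mM DMSO stock was added at 0.5% (v/v) to donor buffer (50 mM MOPSO, pH 6.5, 5.0% glycocholic acid). After 18 h at 37 °C, LC/MS or LC/UV gave donor and acceptor levels for Pe.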

[2] = Metabolic stability in human hepatic microsome; format: in vitro ADME; conditions: microsomes, pH 7.4; human hepatic microsome, NADPH(+); read-out: CL NADPH(+)

Structure (SMILES)	Papp at 18 hours, 50 µM [1] [×10⁻⁶ cm/s]	microsomal CLint at 1 uM [2] [µL/min/mg]
CC[C@H](C)[C@@H]1NC(=O)[C@H](C)NC(=O)C[C@@H](C(=O)N(C)[C@@H](Cc2ccccc2)C(=O)N[C@@H](C)C(=O)N2CCCCC2)NC(=O)[C@H](Cc2ccccc2)NC(=O)[C@H](C)N(C)C(=O)[C@H](C(C)C)N(C)C(=O)CN(C)C(=O)[C@H]([C@@H](C)O)NC(=O)[C@H](Cc2ccccc2)N(C)C(=O)[C@H](CC(C)C)N(C)C(=O)[C@H](CC(C)C)N(C)C1=O [DP-483] (AI[NMeL][NMeL][NMeF]T[Sar][NMeV][NMeA]FD[NMeF]A-Piperidide; lactam N-11)	18	23
CC(C)C[C@@H]1NC(=O)[C@H](Cc2ccccc2)N(C)C(=O)[C@H](C(C)C)N(C)C(=O)CN(C)C(=O)[C@H]([C@@H](C)O)NC(=O)[C@H](Cc2ccccc2)N(C)C(=O)[C@H](CC(C)C)N(C)C(=O)[C@H](CC(C)C)N(C)C(=O)[C@H](C)NC(=O)[C@@H](C(C)C)NC(=O)C[C@@H](C(=O)N(C)[C@@H](Cc2ccccc2)C(=O)N[C@@H](C)C(=O)N2CCCCC2)NC1=O [DP-484] ([dV]A[NMeL][NMeL][NMeF]T[Sar][NMeV][NMeF]LD[NMeF]A-Piperidide; lactam N-11)	13	29
CC[C@H](C)[C@@H]1NC(=O)[C@H](C(C)C)N(C)C(=O)[C@H](C)N(C)C(=O)[C@H]([C@@H](C)O)NC(=O)[C@@H](C)N(C)C(=O)C[C@@H](C(=O)N2CCCCC2)NC(=O)[C@H](C)NC(=O)[C@H](Cc2ccccc2)N(C)C(=O)CN(C)C(=O)[C@H](CC(C)C)N(C)C1=O [DP-485] ([dNMeA]T[NMeA][NMeV]I[NMeL][Sar][NMeF]AD-Piperidide; lactam N-10)	5.9	45
CC[C@H](C)[C@@H]1NC(=O)[C@H](C)N(C)C(=O)[C@H](CC(C)C)N(C)C(=O)CCCN(C)C(=O)C[C@@H](C(=O)N2CCCCC2)NC(=O)[C@H](C)N(C)C(=O)[C@H](Cc2ccccc2)N(C)C(=O)[C@H]([C@@H](C)O)NC(=O)[C@H](Cc2ccccc2)N(C)C(=O)[C@H](CC(C)C)N(C)C1=O [DP-487] ([NMeGABA][NMeL][NMeA]I[NMeL][NMeF]T[NMeF][NMeA]D-Piperidide; lactam N-10)	24	386
CC(C)C[C@H]1C(=O)N(C)[C@@H](C)C(=O)N(C)[C@@H](CC(C)C)C(=O)N[C@H](C(=O)N2CCCCC2)CC(=O)N(C)[C@@H](C)C(=O)N(C)[C@@H](Cc2ccccc2)C(=O)N[C@@H]([C@@H](C)O)C(=O)N(C)[C@@H](C)C(=O)N(C)[C@@H](CC(C)C)C(=O)NCC(=O)N1C [DP-489] ([NMeA][NMeF]T[NMeA][NMeL]G[NMeL][NMeA][NMeL]D-Piperidide; lactam N-10)	24	59
CC[C@H](C)[C@@H]1NC(=O)[C@H](CC(C)C)N(C)C(=O)[C@H](C)N(C)C(=O)[C@H]([C@@H](C)O)NC(=O)[C@H](C)N(C)C(=O)[C@H](C(C)C)N(C)C(=O)[C@H](Cc2ccccc2)NC(=O)CCN(C)C(=O)C[C@@H](C(=O)N(C)[C@@H](Cc2ccccc2)C(=O)N[C@@H](C)C(=O)N2CCCCC2)NC(=O)[C@H](C)N(C)C1=O [DP-490] ([NMeβAla]F[NMeV][NMeA]T[NMeA][NMeL]I[NMeA]D[NMeF]A-Piperidide; lactam N-10)	11	27
CC[C@H](C)[C@@H]1NC(=O)[C@@H](C)NC(=O)C[C@@H](C(=O)N(C)[C@@H](Cc2ccccc2)C(=O)N[C@@H](C)C(=O)N2CCCCC2)NC(=O)[C@H](Cc2ccccc2)N(C)C(=O)[C@H](C)NC(=O)[C@H](CC(C)C)N(C)C(=O)[C@H](C)N(C)C(=O)[C@H]([C@@H](C)O)NC(=O)[C@H](C(C)C)N(C)C(=O)[C@H](C)N(C)C1=O [DP-491] ([dA]I[NMeA][NMeV]T[NMeA][NMeL]A[NMeF]D[NMeF]A-Piperidide; lactam N-10)	18	39
CC[C@H](C)[C@@H]1NC(=O)[C@H](Cc2ccccc2)N(C)C(=O)[C@H](C)N(C)C(=O)[C@H]([C@@H](C)O)NC(=O)[C@H](CC(C)C)N(C)C(=O)[C@H](C)N(C)C(=O)C[C@@H](C(=O)N(C)[C@@H](Cc2ccccc2)C(=O)N[C@@H](C)C(=O)N2CCCCC2)NC(=O)[C@H](C(C)C)N(C)C(=O)[C@H](CC(C)C)N(C)C(=O)CN(C)C1=O [DP-492] ([NMeA][NMeL]T[NMeA][NMeF]I[Sar][NMeL][NMeV]D[NMeF]A-Piperidide; lactam N-10)	20	61
CC(C)C[C@H]1C(=O)N(C)[C@@H](CC(C)C)C(=O)N(C)[C@@H](Cc2ccccc2)C(=O)N(C)[C@@H](CC(C)C)C(=O)N[C@H](C(=O)N(C)[C@@H](Cc2ccccc2)C(=O)N[C@@H](C)C(=O)N2CCCCC2)CC(=O)N(C)CC(=O)N[C@@H]([C@@H](C)O)C(=O)N(C)[C@@H](Cc2ccccc2)C(=O)N(C)[C@@H](CC(C)C)C(=O)N[C@@H](C)C(=O)N1C [DP-493] ([Sar]T[NMeF][NMeL]A[NMeL][NMeL][NMeF][NMeL]D[NMeF]A-Piperidide; lactam N-10)	2.4	52
CC[C@H](C)[C@@H]1NC(=O)CCN(C)C(=O)C[C@@H](C(=O)N(C)[C@@H](Cc2ccccc2)C(=O)N(C)[C@@H](Cc2ccccc2)C(=O)N[C@@H](C)C(=O)N2CCCCC2)NC(=O)[C@H](C(C)C)N(C)C(=O)[C@H](C)NC(=O)[C@H](CC(C)C)N(C)C(=O)CN(C)C(=O)[C@H]([C@@H](C)O)NC(=O)[C@H](C)N(C)C(=O)[C@H](Cc2ccccc2)N(C)C1=O [DP-495] ([NMeβAla]I[NMeF][NMeA]T[Sar][NMeL]A[NMeV]D[NMeF][NMeF]A-Piperidide; lactam N-10)	21	7
CC[C@H](C)[C@@H]1NC(=O)[C@H](CC(C)C)N(C)C(=O)CCN(C)C(=O)C[C@@H](C(=O)N(C)[C@@H](Cc2ccccc2)C(=O)N(C)[C@@H](Cc2ccccc2)C(=O)N[C@@H](C)C(=O)N2CCCCC2)NC(=O)[C@H](C(C)C)N(C)C(=O)[C@H](CC(C)C)N(C)C(=O)CN(C)C(=O)[C@H]([C@@H](C)O)NC(=O)[C@H](Cc2ccccc2)NC(=O)[C@H](C(C)C)N(C)C1=O [DP-496] ([NMeβAla][NMeL]I[NMeV]FT[Sar][NMeL][NMeV]D[NMeF][NMeF]A-Piperidide; lactam N-10)	23	13
CC(C)C[C@H]1C(=O)N(C)[C@@H](C(C)C)C(=O)N(C)[C@@H](C)C(=O)N[C@H](C(=O)N(C)[C@@H](Cc2ccccc2)C(=O)N(C)[C@@H](Cc2ccccc2)C(=O)N[C@@H](C)C(=O)N2CCCCC2)CC(=O)N(C)CCC(=O)N(C)CC(=O)N[C@@H]([C@@H](C)O)C(=O)N[C@@H](Cc2ccccc2)C(=O)N(C)[C@@H](C(C)C)C(=O)N[C@@H](C)C(=O)N1C [DP-497] ([NMeβAla][Sar]TF[NMeV]A[NMeL][NMeV][NMeA]D[NMeF][NMeF]A-Piperidide; lactam N-10)	9.3	58
CC[C@H](C)[C@@H]1NC(=O)[C@H](Cc2ccccc2)N(C)C(=O)[C@H](C)N(C)C(=O)CN(C)C(=O)[C@H]([C@@H](C)O)NC(=O)[C@H](C)N(C)C(=O)[C@H](C(C)C)N(C)C(=O)[C@H](C)NC(=O)CCN(C)C(=O)C[C@@H](C(=O)N(C)[C@@H](Cc2ccccc2)C(=O)N(C)[C@@H](Cc2ccccc2)C(=O)N[C@@H](C)C(=O)N2CCCCC2)NC1=O [DP-498] ([NMeβAla]A[NMeV][NMeA]T[Sar][NMeA][NMeF]ID[NMeF][NMeF]A-Piperidide; lactam N-10)	2.7	9
CC(C)C[C@H]1C(=O)N(C)[C@@H](C)C(=O)N[C@@H]([C@@H](C)O)C(=O)N(C)[C@@H](C)C(=O)N[C@H](C(=O)N(C)[C@@H](Cc2ccccc2)C(=O)N(C)[C@@H](Cc2ccccc2)C(=O)N[C@@H](C)C(=O)N2CCCCC2)CC(=O)N(C)CCC(=O)N(C)[C@@H](Cc2ccccc2)C(=O)N(C)[C@@H](CC(C)C)C(=O)N(C)[C@@H](C)C(=O)N[C@@H](C(C)C)C(=O)N1C [DP-500] ([NMeβAla][NMeF][NMeL][NMeA]V[NMeL][NMeA]T[NMeA]D[NMeF][NMeF]A-Piperidide; lactam N-10)	27	28
CC(C)C[C@H]1C(=O)N(C)[C@@H](C(C)C)C(=O)N[C@@H](Cc2ccccc2)C(=O)N[C@H](C(=O)N(C)[C@@H](Cc2ccccc2)C(=O)N(C)[C@@H](Cc2ccccc2)C(=O)N[C@@H](C)C(=O)N2CCCCC2)CC(=O)N[C@H](C)C(=O)N[C@@H](C(C)C)C(=O)N(C)[C@@H](CC(C)C)C(=O)N[C@@H]([C@@H](C)O)C(=O)N(C)[C@@H](Cc2ccccc2)C(=O)NCC(=O)N1C [DP-501] ([dA]V[NMeL]T[NMeF]G[NMeL][NMeV]FD[NMeF][NMeF]A-Piperidide; lactam N-10)	0.23	7
CC[C@H](C)[C@@H]1NC(=O)[C@H](C)N(C)C(=O)[C@H](CC(C)C)N(C)C(=O)CN(C)C(=O)[C@H]([C@@H](C)O)NC(=O)[C@H](C(C)C)N(C)C(=O)[C@H](C)N(C)C(=O)[C@H](Cc2ccccc2)NC(=O)[C@@H](C)NC(=O)C[C@@H](C(=O)N(C)[C@@H](Cc2ccccc2)C(=O)N(C)[C@@H](Cc2ccccc2)C(=O)N[C@@H](C)C(=O)N2CCCCC2)NC1=O [DP-502] ([dA]F[NMeA][NMeV]T[Sar][NMeL][NMeA]ID[NMeF][NMeF]A-Piperidide; lactam N-10)	17	19
CC(C)C[C@H]1C(=O)N[C@@H]([C@@H](C)O)C(=O)N(C)[C@@H](Cc2ccccc2)C(=O)N(C)[C@@H](CC(C)C)C(=O)NCC(=O)N(C)[C@@H](C(C)C)C(=O)N[C@@H](Cc2ccccc2)C(=O)N[C@H](C(=O)N(C)[C@@H](Cc2ccccc2)C(=O)N(C)[C@@H](Cc2ccccc2)C(=O)N[C@@H](C)C(=O)N2CCCCC2)CC(=O)N(C)[C@H](C)C(=O)N[C@@H](C(C)C)C(=O)N1C [DP-503] ([dNMeA]V[NMeL]T[NMeF][NMeL]G[NMeV]FD[NMeF][NMeF]A-Piperidide; lactam N-10)	0.2	43
